# Tests used:
# ROS1-wt = target: T1, ROS1-wt (Homo sapiens, UniProt P08922); assay: Biochemical kinase assay, ROS1-wt kinase domain; settings: apparent inhibitory constant, Morrison equation; ATP 2 mM in substrate solution; read-out: ROS1-wt Ki^app
# T1 construct: purchased Carna 08-163
# Method in brief: (§1)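 Compounds, as 100-fold DMSO stocks, were dispensed first, then substrate mix was added (ATP 2 mM, AQT0101 26 μM, in 50 mM HEPES pH 7.5/10 mM MgCl2). Reactions ran at 30 °C with fluorescence logged every 2 min over 120 min. Apparent inhibition constants came from fitting rates to Morrison's tight-binding equation.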
# Ba/F3 cells TPM3-TRKA = target: T2, Ba/F3 cells TPM3-TRKA (Homo sapiens, UniProt P04629); assay: Ba/F3 cell proliferation assay, TPM3-TRKA; type: cell-based; settings: 72 hours, CellTiter-Glo, read-out: TPM3-NTRK1-wt IC50
# T2 construct: host or cells: Ba/F3 (RIKEN), retroviral pMSCV-puro; the other entry of the earlier key: TPM3 (P06753, Tropomyosin alpha-3 chain)
# T2 sequence (P04629 510-796 limits assumed): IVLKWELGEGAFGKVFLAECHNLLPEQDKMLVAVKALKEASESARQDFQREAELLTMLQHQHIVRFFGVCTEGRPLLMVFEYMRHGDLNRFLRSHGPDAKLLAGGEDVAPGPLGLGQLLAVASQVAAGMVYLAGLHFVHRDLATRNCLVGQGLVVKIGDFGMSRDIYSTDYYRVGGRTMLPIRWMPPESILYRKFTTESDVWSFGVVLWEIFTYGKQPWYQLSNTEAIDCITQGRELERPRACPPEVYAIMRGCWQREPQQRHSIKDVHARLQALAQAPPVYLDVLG
# Method in brief: (§2)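 Ba/F3 lines stably expressing the fusion (retroviral pMSCV-puro, selected by IL-3 withdrawal plus puromycin 0.8 μg/mL, monoclonal) were seeded at 1,000 cells/well, dosed next day with 3-fold compound dilutions, and incubated 72 hours. CellTiter-Glo luminescence gave percent inhibition; IC50 by four-parameter logistic fit.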
# TRKA-wt = target: T3, TRKA-wt (Homo sapiens, UniProt P04629); assay: Biochemical kinase assay, TRKA-wt kinase domain; settings: apparent inhibitory constant, Morrison equation; ATP 2 mM in substrate solution; read-out: TRKA-wt Ki^app
# T3 construct: or TRKA-wt (1 nM, BPS Bio, 40280) kinase domains in buffer; purchased BPS Bio 40280
# T3 sequence (P04629 510-781 limits assumed): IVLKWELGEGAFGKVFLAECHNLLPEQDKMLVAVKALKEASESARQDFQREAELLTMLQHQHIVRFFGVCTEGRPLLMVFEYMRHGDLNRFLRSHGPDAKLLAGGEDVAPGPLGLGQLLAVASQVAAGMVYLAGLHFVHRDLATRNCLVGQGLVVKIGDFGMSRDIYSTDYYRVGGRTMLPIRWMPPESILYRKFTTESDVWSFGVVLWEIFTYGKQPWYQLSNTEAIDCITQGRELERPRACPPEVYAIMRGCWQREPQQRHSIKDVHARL
# Method in brief: (§3)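 Apparent Ki values come from fitting initial reaction rates against inhibitor concentration to the Morrison equation. Rates were taken from the linear phase of fluorogenic substrate phosphorylation (AQT0101 for ALK and ROS1, AQT0104 for TRKA; 26 μM in substrate solution with 2 mM ATP), monitored at 485 nm over 120 min at 30° C.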
# ALK-wt = target: T4, ALK-wt (Homo sapiens, UniProt Q9UM73); assay: Biochemical kinase assay, ALK-wt kinase domain; settings: apparent inhibitory constant, Morrison equation; ATP 2 mM in substrate solution; read-out: ALK-wt Ki^app
# T4 construct: purchased Carna 08-518
# T4 sequence (Q9UM73 1116-1392 limits assumed): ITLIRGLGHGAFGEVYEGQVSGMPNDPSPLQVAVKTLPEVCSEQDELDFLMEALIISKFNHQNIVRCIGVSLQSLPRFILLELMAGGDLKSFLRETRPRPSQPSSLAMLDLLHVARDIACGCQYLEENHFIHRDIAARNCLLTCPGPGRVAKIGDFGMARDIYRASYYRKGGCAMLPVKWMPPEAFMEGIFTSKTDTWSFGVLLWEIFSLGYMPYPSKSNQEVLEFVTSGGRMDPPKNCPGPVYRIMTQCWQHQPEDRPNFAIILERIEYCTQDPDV
# Method in brief: as §3
# [1] = target: T5, Ba/F3 cells CD74-ROS1 G2032R (Homo sapiens, UniProt P08922, G2032R); assay: Ba/F3 cell proliferation assay, CD74-ROS1 G2032R; type: cell-based; settings: 72 hours, CellTiter-Glo
# T5 construct: fusion of the C-terminus of ROS1 with the N-terminus of various partner proteins; host or cells: Ba/F3 (RIKEN), retroviral pMSCV-puro; the other entry of the earlier key: CD74 (P04233, HLA class II histocompatibility antigen gamma chain)
# T5 sequence (P08922 1883-2347 G2032R limits assumed): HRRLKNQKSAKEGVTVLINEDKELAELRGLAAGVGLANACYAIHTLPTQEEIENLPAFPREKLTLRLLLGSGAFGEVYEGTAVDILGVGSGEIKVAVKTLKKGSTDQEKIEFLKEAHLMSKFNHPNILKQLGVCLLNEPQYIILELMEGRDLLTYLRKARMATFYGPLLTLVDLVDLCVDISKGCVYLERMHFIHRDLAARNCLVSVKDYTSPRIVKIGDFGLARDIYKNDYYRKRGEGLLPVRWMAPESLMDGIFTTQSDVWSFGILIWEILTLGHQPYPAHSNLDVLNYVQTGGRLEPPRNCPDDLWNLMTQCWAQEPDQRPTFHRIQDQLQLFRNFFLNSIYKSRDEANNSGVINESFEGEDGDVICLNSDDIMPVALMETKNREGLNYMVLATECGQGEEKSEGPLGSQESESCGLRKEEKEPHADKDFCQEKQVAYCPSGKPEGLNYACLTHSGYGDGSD
# Method in brief: (§4)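 IL-3-independent Ba/F3 CD74-ROS1 lines, puromycin-selected monoclones; 1,000 cells/well, plated 1 d before dosing; 3-fold serial dilutions, 72 h; CellTiter-Glo luminescence; IC50 by 4-parameter logistic regression.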
# [2] = test system: TPM3-NTRK1-wt IC50 / primary target IC50 (e.g. CD74-ROS1-wt); assay: TRKA selectivity in Ba/F3 cells (TRKA potency divided by primary target potency); type: cell-based; settings: for TPM3-NTRK1-wt/CD74-ROS1-G2032R selectivity ratio: TRKA potency / CD74-ROS1-G2032R potency; for TPM3-NTRK1-wt/CD74-ROS1-wt selectivity ratio: TRKA potency / CD74-ROS1-wt potency; for TPM3-NTRK1-wt/EML4-ALK-L1196M-G1202R selectivity ratio: TRKA potency / EML4-ALK-L1196M-G1202R potency; for TPM3-NTRK1-wt/EML4-ALK-wt selectivity ratio: TRKA potency / EML4-ALK-wt potency
# Experimental: TRKA selectivity was calculated by dividing a compound's TRKA potency by its primary target potency (e.g. TPM3-NTRK1-wt IC50/CD74-ROS1-wt IC50). Compound selectivity can be interpreted by binning ratio values: bin A for very high selectivity, ratio >30-fold; bin B for high selectivity, ratio >10-fold; bin C for moderate selectivity, ratio ≥1; and bin D for low selectivity, ratio <1. […] (nd=not determined).
# ALK L1196M/G1202R = target: T6, ALK L1196M/G1202R (Homo sapiens, UniProt Q9UM73, G1202R/L1196M); assay: Biochemical kinase assay, ALK L1196M/G1202R kinase domain; settings: apparent inhibitory constant, Morrison equation; ATP 2 mM in substrate solution; read-out: ALK-L1196M-G1202R Ki^app
# T6 construct: purchased SignalChem A19-12NG
# T6 sequence (Q9UM73 1116-1392 L1196M/G1202R limits assumed): as the sequence (Q9UM73 1116-1392 limits assumed) above, with L81M, G87R counted along it
# Method in brief: as §3
# [3] = target: T7, Ba/F3 cells EML4-ALK L1196M/G1202R (variant 1) (Homo sapiens, UniProt Q9UM73, G1202R/L1196M); assay: Ba/F3 cell proliferation assay, EML4-ALK L1196M/G1202R (variant 1); type: cell-based; settings: 72 hours, CellTiter-Glo
# T7 construct: echinoderm microtubule-associated protein-like 4 (EML4) gene and the ALK tyrosine kinase domain; host or cells: Ba/F3 (RIKEN), retroviral pMSCV-puro; the other entry of the earlier key: EML4 (Q9HC35, Echinoderm microtubule-associated protein-like 4)
# T7 sequence (Q9UM73 with tags, fused parts or gaps L1196M/G1202R): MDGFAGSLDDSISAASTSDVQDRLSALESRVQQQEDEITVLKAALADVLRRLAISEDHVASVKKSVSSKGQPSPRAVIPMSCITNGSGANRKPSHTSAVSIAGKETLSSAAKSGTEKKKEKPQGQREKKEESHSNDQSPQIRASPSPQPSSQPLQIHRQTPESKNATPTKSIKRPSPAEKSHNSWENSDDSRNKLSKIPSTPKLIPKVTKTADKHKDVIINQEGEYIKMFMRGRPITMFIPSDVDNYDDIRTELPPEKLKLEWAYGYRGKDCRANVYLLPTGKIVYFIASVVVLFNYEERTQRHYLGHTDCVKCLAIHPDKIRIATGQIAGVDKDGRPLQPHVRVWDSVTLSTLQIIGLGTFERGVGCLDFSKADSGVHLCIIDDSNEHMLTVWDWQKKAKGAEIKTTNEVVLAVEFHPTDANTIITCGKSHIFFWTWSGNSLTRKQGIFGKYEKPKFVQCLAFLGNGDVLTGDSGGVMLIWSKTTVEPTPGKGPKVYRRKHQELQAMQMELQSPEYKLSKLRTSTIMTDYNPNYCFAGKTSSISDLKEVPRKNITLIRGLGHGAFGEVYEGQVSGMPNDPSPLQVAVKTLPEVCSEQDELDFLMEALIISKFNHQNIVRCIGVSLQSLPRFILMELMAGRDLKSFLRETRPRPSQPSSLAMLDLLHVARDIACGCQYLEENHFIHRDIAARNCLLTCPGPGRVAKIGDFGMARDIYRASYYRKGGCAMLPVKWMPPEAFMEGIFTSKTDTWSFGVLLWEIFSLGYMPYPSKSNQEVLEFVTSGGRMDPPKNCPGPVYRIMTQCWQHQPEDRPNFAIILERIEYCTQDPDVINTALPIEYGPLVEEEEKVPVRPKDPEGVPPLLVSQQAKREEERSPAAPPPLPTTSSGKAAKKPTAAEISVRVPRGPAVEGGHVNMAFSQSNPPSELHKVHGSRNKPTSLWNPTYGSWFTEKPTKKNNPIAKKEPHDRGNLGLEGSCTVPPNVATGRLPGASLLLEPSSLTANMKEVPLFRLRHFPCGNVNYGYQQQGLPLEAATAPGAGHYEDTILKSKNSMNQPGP
# Method in brief: as §2
# ROS1-G2032R = target: T8, ROS1-G2032R (Homo sapiens, UniProt P08922, G2032R); assay: Biochemical kinase assay, ROS1-G2032R kinase domain; settings: apparent inhibitory constant, Morrison equation; ATP 2 mM in substrate solution; read-out: ROS1-G2032R Ki^app
# T8 construct: purchased SignalChem R14-12BG
# T8 sequence (P08922 1945-2222 G2032R limits assumed): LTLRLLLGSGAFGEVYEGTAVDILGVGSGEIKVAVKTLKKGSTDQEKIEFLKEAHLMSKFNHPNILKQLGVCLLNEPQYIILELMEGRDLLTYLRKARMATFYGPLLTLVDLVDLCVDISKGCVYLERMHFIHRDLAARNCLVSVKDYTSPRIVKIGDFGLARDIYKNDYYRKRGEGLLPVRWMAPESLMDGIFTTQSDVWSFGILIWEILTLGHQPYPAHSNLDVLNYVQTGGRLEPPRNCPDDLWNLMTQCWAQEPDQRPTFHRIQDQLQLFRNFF
# Method in brief: as §1
# [4] = target: T9, Ba/F3 cells EML4-ALK wt (variant 1) (Homo sapiens, UniProt Q9UM73); assay: Ba/F3 cell proliferation assay, EML4-ALK wt (variant 1); type: cell-based; settings: 72 hours, CellTiter-Glo
# T9 construct: echinoderm microtubule-associated protein-like 4 (EML4) gene and the ALK tyrosine kinase domain; host or cells: Ba/F3 (RIKEN), retroviral pMSCV-puro; the other entry of the earlier key: EML4 (Q9HC35, Echinoderm microtubule-associated protein-like 4)
# T9 sequence (Q9UM73 with tags, fused parts or gaps): as the sequence (Q9UM73 with tags, fused parts or gaps L1196M/G1202R) above, with M635L, R641G counted along it
# Method in brief: as §2
# [5] = target: T10, Ba/F3 cells CD74-ROS1 wild-type (wt) (Homo sapiens, UniProt P08922); assay: Ba/F3 cell proliferation assay, CD74-ROS1 wild-type; type: cell-based; settings: 72 hours, CellTiter-Glo
# T10 construct: fusion of the C-terminus of ROS1 with the N-terminus of various partner proteins; host or cells: Ba/F3 (RIKEN), retroviral pMSCV-puro; the other entry of the earlier key: CD74 (P04233, HLA class II histocompatibility antigen gamma chain)
# T10 sequence (P08922 1883-2347 limits assumed): as the sequence (P08922 1883-2347 G2032R limits assumed) above, with R150G counted along it
# Method in brief: as §4
# T1 sequence (P08922 1945-2222 limits assumed): as the sequence (P08922 1945-2222 G2032R limits assumed) above, with R88G counted along it
SMILES,Ki (ROS1-wt),IC50 (Ba/F3 cells TPM3-TRKA),Ki (TRKA-wt),Ki (ALK-wt),IC50 [1],Ki (ALK L1196M/G1202R),IC50 [3],Ki (ROS1-G2032R),IC50 [4],IC50 [5],TPM3-NTRK1-wt/CD74-ROS1-G2032R selectivity ratio [2],TPM3-NTRK1-wt/CD74-ROS1-wt selectivity ratio [2],TPM3-NTRK1-wt/EML4-ALK-L1196M-G1202R selectivity ratio [2],TPM3-NTRK1-wt/EML4-ALK-wt selectivity ratio [2]
"C[C@H]1Oc2cc(cnc2N)-c2c(cnn2C2COC2)Cc2nn(C)nc2-c2ccc(F)cc21 [Example 83, (19R)-16-fluoro-10,19-dimethyl-3-(oxetan-3-yl)-20-oxa-3,4,9,10,11,23-hexaazapentacyclo[19.3.1.0^2,^6.0^8,^12.0^13,^18]pentacosa-1(24),2(6),4,8,11,13,15,17,21(25),22-decaen-22-amine]",< 50 nM,50 to 500 nM,> 500 nM,< 50 nM,0.1 to 50 nM,< 50 nM,50 to 500 nM,< 50 nM,0.1 to 50 nM,0.1 to 50 nM,"A (bin A for very high selectivity, ratio >30-fold)","A (bin A for very high selectivity, ratio >30-fold)","C (bin C for moderate selectivity, ratio ≥1)","A (bin A for very high selectivity, ratio >30-fold)"
"CCn1nc(Cl)c2c1-c1cnc(N)c(c1)O[C@H](C)c1cc(F)ccc1-c1oc(C)nc1C2 [Example 84, (19R)-5-chloro-3-ethyl-16-fluoro-10,19-dimethyl-11,20-dioxa-3,4,9,23-tetraazapentacyclo[19.3.1.0^2,^6.0^8,^12.0^13,^18]pentacosa-1(24),2(6),4,8(12),9,13,15,17,21(25),22-decaen-22-amine]",< 50 nM,> 500 nM,> 500 nM,< 50 nM,0.1 to 50 nM,< 50 nM,50 to 500 nM,< 50 nM,50 to 500 nM,0.1 to 50 nM,"A (bin A for very high selectivity, ratio >30-fold)","A (bin A for very high selectivity, ratio >30-fold)","C (bin C for moderate selectivity, ratio ≥1)","B (bin B for high selectivity, ratio >10-fold)"
"C[C@H]1Oc2cc(cnc2N)-c2c(c(Cl)nn2CC2CC2)Cc2nn(C)nc2-c2ccc(F)cc21 [Example 85, (19R)-5-chloro-3-(cyclopropylmethyl)-16-fluoro-10,19-dimethyl-20-oxa-3,4,9,10,11,23-hexaazapentacyclo [19.3.1.0^2,^6.0^8,^12.0^13,^18]pentacosa-1(24),2(6),4,8,11,13,15,17,21(25),22-decaen-22-amine]",< 50 nM,> 500 nM,> 500 nM,< 50 nM,0.1 to 50 nM,< 50 nM,0.1 to 50 nM,< 50 nM,0.1 to 50 nM,0.1 to 50 nM,"A (bin A for very high selectivity, ratio >30-fold)","A (bin A for very high selectivity, ratio >30-fold)","A (bin A for very high selectivity, ratio >30-fold)","A (bin A for very high selectivity, ratio >30-fold)"

# Second part, led by results:
Ki (ROS1-wt),IC50 (Ba/F3 cells TPM3-TRKA),Ki (TRKA-wt),Ki (ALK-wt),IC50 [1],Ki (ALK L1196M/G1202R),IC50 [3],Ki (ROS1-G2032R),IC50 [4],IC50 [5],SMILES,TPM3-NTRK1-wt/CD74-ROS1-G2032R selectivity ratio [2],TPM3-NTRK1-wt/CD74-ROS1-wt selectivity ratio [2],TPM3-NTRK1-wt/EML4-ALK-L1196M-G1202R selectivity ratio [2],TPM3-NTRK1-wt/EML4-ALK-wt selectivity ratio [2]
< 50 nM,> 500 nM,> 500 nM,< 50 nM,> 500 nM,50 to 500 nM,> 500 nM,> 500 nM,0.1 to 50 nM,0.1 to 50 nM,"Cc1nn(CC(C)C)c2c1Cn1ncnc1-c1ccc(F)cc1[C@@H](C)Oc1cc-2cnc1N [Example 79, (19R)-16-fluoro-5,19-dimethyl-3-(2-methylpropyl)-20-oxa-3,4,8,9,11,23-hexaazapentacyclo [19.3.1.0^2,^6.0^8,^12.0^13,^18]pentacosa-1(2.4),2(6),4,9,11,13,15,17,21(25),22-decaen-22-amine]","B (bin B for high selectivity, ratio >10-fold)","A (bin A for very high selectivity, ratio >30-fold)","C (bin C for moderate selectivity, ratio ≥1)","A (bin A for very high selectivity, ratio >30-fold)"
< 50 nM,> 500 nM,> 500 nM,< 50 nM,0.1 to 50 nM,50 to 500 nM,> 500 nM,50 to 500 nM,50 to 500 nM,0.1 to 50 nM,"CCn1nc(C(F)(F)F)c2c1-c1cnc(N)c(c1)O[C@H](C)c1cc(F)ccc1-c1nn(C)nc1C2 [Example 80, (19R)-3-ethyl-16-fluoro-10,19-dimethyl-5-(trifluoromethyl)-20-oxa-3,4,9,10,11,23-hexaazapentacyclo[19.3.1.0^2,^6.0^8,^12.0^13,^18]pentacosa-1(24),2(6),4,8,11,13,15,17,21(25),22-decaen-22-amine]","A (bin A for very high selectivity, ratio >30-fold)","A (bin A for very high selectivity, ratio >30-fold)","C (bin C for moderate selectivity, ratio ≥1)","B (bin B for high selectivity, ratio >10-fold)"
< 50 nM,> 500 nM,> 500 nM,< 50 nM,0.1 to 50 nM,< 50 nM,50 to 500 nM,< 50 nM,0.1 to 50 nM,0.1 to 50 nM,"Cc1nn(CC2CC2)c2c1Cc1nn(C)nc1-c1c(F)cc(F)cc1[C@@H](C)Oc1cc-2cnc1N [Example 82, (19R)-3-(cyclopropylmethyl)-14,16-difluoro-5,10,19-trimethyl-20-oxa3,4,9,10,11,23-hexaazapentacyclo[19.3.1.0^2,^6.0^8,^12.0^13,^18]pentacosa 1(24),2(6),4,8,11,13,15,17,21(25),22-decaen-22-amine]","A (bin A for very high selectivity, ratio >30-fold)","A (bin A for very high selectivity, ratio >30-fold)","A (bin A for very high selectivity, ratio >30-fold)","A (bin A for very high selectivity, ratio >30-fold)"

# From patent US12054498B2, “Heteroaromatic macrocyclic ether chemotherapeutic agents” (Nuvalent, Inc., priority 2020, dated 2024)
